The results in this text go back to a melting point compilation (Tetko et al.; mined from patent text by program, amines drawn as free bases though some values may be those of a salt).

Some results are limits rather than exact numbers.

As a reminder, the melting point is the temperature, or range, at which the solid turns liquid. `CC1(C)NC(=O)N(c2ccc([N+](=O)[O-])cc2C(F)(F)F)C1=O` returned a melting point of 175 to 176 °C. Next, `CC(C)OC(=O)N1CC(=O)Nc2ccc(Br)cc21`: 159 to 161 °C; `CCOC(=O)Cc1c(C)n(Cc2cccc(OC)c2)c2ccc(OCc3csc(-c4ccccc4)n3)cc12`: 85 to 86 °C. The compound `N#Cc1ccc(Nc2nc(Oc3c(Br)cc(C=O)cc3Br)ccc2[N+](=O)[O-])cc1` showed a melting point of 218 to 220 °C. Take `CC1(C)CC(=C(c2ccccc2)c2ccc(OCCO)cc2)CC(C)(C)C1`: the melting point is 131 to 132 °C.

In turn, `Fc1ccc(-c2nc3n(c2-c2ccnc(Nc4ccccc4)c2)CCS3)cc1` had a melting point of 299 °C. `Nc1c(C(=O)c2ccccc2OCc2ccccc2)oc2ccc(Cl)cc12`: the melting point fell in the range of 158 to 160 °C. Next, `Cc1cc(-c2ccccc2)n2nc(SCc3ccccc3)nc2n1`: 110 to 111 °C. In turn, `CC(=O)Nc1c(C(=O)c2ccc(Cl)c(Cl)c2)[nH]c2cc(Cl)ccc12` had a melting point of 169 to 171 °C. The compound `Cn1cc(C2=C(c3ccccc3OCC3COC(C)(C)O3)C(=O)NC2=O)c2ccccc21` (racemic) gave a melting point of 221 °C. With `CCOC(=O)Cn1c(-c2ccc([N+](=O)[O-])cc2)nc2cccnc21`, the melting point was 192 to 194 °C.

Compound `CNc1nc(N)nc2c1ncn2C1CC(F)C(CO)O1` (centres undefined) yielded a melting point of 111 °C. In the case of `CCCN1NC(c2ccc(C)cc2)C2=C1C(=Cc1ccc(C)cc1)CSC2` (centres undefined) it was 140 to 143 °C; in that of `CNC(=N)Nc1nnc(-c2ccccc2C(F)(F)F)s1`, 160 to 162 °C; in that of `COC(=O)c1cc(-c2ccc(-c3ccccc3)cc2)nn(CC(C)C)c1=O`, 186 to 195 °C. Take `CCCCc1cc(SCc2ccc(-c3ccc(C(F)(F)F)cc3)cc2)ccc1OCC(=O)O`: the melting point was 155 to 157 °C. The compound `CC(=O)C(=[N+]=[N-])C(=O)CCc1ccc(S(N)(=O)=O)cc1` gave a melting point of 110 to 112 °C. `COc1nc(C)c(C)cc1NC(=O)N1CCN(C(c2ccccc2)c2ccccc2)CC1` yielded a melting point of 132 to 134 °C. In the case of `O=Cc1cnc2n1CCc1ccccc1C2=C1CCN(C2CCN(C(=O)c3cc(C(F)(F)F)cc(C(F)(F)F)c3)C(Cc3ccccc3)C2)CC1` (centres undefined) it was 126 °C; in that of `COC(=O)C(C)[C@H]1CC[C@H]2[C@@H]3CCC4=CC(=O)CC[C@]4(C)[C@H]3CC[C@]12C` (some centres undefined), 175 to 177 °C; in that of `O=[N+]([O-])c1cccc(OCCCl)c1`, 54.5 to 57 °C. Turning to `Cc1cccc(COc2ccc(C#N)cc2Cl)c1`, the melting point is 73 to 75 °C. In the case of `COC(CN(C)C(=O)Nc1cc(C(C)(C)C)on1)OC`, the melting point fell in the range of 80 to 84 °C.

The compound `Nc1ccc(F)c(C(=O)Nc2ccccc2)c1` registered a melting point of 120 to 122 °C.

`N=C(Nc1cc(NC(=O)/C=C/c2ccccc2C(F)(F)F)ccc1Cl)c1ccccc1` yielded a melting point of 188 to 189 °C. With `COc1cc2c(N3CCN(C(=O)Nc4ccc(Oc5ccccc5)cc4)CC3)ncnc2c(OC)c1OC`, the melting point is 83 to 84 °C. In the case of `OCc1ccc(OCc2csc(-c3ccccc3)n2)cc1`, the melting point lay in the range of 145 to 146 °C. `Fc1nc(NCc2ccncc2)c2nc[nH]c2n1`: the melting point lay in the range of 200 to 202 °C. In the case of `CC(C)(C)OC(=O)NC(C)(CO)C(=O)OC(C)(C)C` (centres undefined), the melting point was 44 to 45 °C. Compound `O=C(Nc1nccs1)c1nc(-c2ccc([N+](=O)[O-])cc2)[nH]c1-c1ccc(CCl)cc1` returned a melting point of over 280 °C. Next, `CCOCCOc1cc(OC)c(C(CC(=O)Nc2cc(C(N)=O)ccc2C(C)(C)C)CC(C)C)cc1Cl` (centres undefined): 180 to 181 °C. For `Cn1cc(C(=O)NCc2ccc(C#N)cc2)c(=O)c2cc(C#CCO)ccc21`, the melting point lay within 230 to 232 °C. As for `CCC(=O)NC(C)OC` (centres undefined), the melting point lay within 29 to 32 °C. `CN1C(=O)C(NC(=O)c2ccccc2)C(C)(C)SC1=S` (centres undefined) yielded a melting point of 184 to 185 °C.
